The species named for one data set is Cavia porcellus. Put plainly: Concentration required to antagonize the histamine induced contractile response of guinea pig ileum. Conditions: read-out: pA2 (converted). The data set is classed as functional.
Data set [1] in a line: Dose causing 50% death of the population when tested in mice. The format is ADME. The note with it: mouse, in vivo.

Bounds are passed on as bounds.

One may read the LD50 as the dose at which mortality reaches 50%. A lower LD50 goes with greater toxicity.

With `COc1ccc(CCN2CCC(C(=O)c3nc4ccccc4s3)CC2)cc1`, the Kb in the data set filed under Cavia porcellus is 0.501 nM. The LD50 in data set [1] is above 400 mg/kg.
For `COc1ccc(CCN2CCC(C(O)(c3ccccc3)c3nc4ccccc4s3)CC2)cc1` (centres undefined), the Kb in the data set listed under Cavia porcellus was 39.8 nM.
`COc1ccc(OCCCN2CCC(C(=O)c3nc4ccccc4s3)CC2)cc1`: in the data set filed under Cavia porcellus, the Kb was 5.01 nM. The LD50 in data set [1] is above 400 mg/kg.
Take `COc1ccc(CCN2CCC(C(O)c3nc4ccccc4s3)CC2)cc1` (centres undefined): the Kb in the data set listed under Cavia porcellus is 6.31 nM.
`C=C(c1nc2ccccc2s1)C1CCN(CCc2ccc(OC)cc2)CC1`: the Kb in the data set filed under Cavia porcellus was 1.58 nM.
Turning to `O=C(c1nc2ccccc2s1)C1CCN(CCc2ccccc2)CC1`, the Kb in the data set listed under Cavia porcellus was 15.8 nM. The compound also yielded an LD50 in data set [1] above 400 mg/kg.
As for `COc1cccc(CN2CCC(C(=O)c3nc4ccccc4s3)CC2)c1`, the Kb in the data set filed under Cavia porcellus is 50.1 nM. Moreover, the LD50 in data set [1] amounted to 400 mg/kg.
`COC(=O)CN1CCC(C(=O)c2nc3ccccc3s2)CC1`: in the data set listed under Cavia porcellus, the Kb was around 100 nM. The compound further displayed an LD50 in data set [1] above 400 mg/kg.
Turning to `COC(=O)c1ccc(OCCCN2CCC(C(=O)c3nc4ccccc4s3)CC2)cc1`, in the data set filed under Cavia porcellus, the Kb was 2.51 nM. In addition, the LD50 in data set [1] is above 400 mg/kg.
In the same order, the values of `CC(=O)Nc1ccc(OCCCN2CCC(C(=O)c3nc4ccccc4s3)CC2)cc1` are 7.94 nM and above 400 mg/kg.
`O=C(c1nc2ccccc2s1)C1CCN(CCc2ccc(F)cc2)CC1`: the Kb in the data set filed under Cavia porcellus was 3.98 nM. For the same compound, the LD50 in data set [1] was above 400 mg/kg.

Source of the values: ChEMBL document CHEMBL1127219, “A convergent synthesis of 4-(2-benzothiazoyl)piperidines with antihistamic activity” (Bioorg Med Chem Lett, 1993).
